2 compounds from publication PMC5862592, “CDK8/19 inhibition induces premature G1/S transition and ATR-dependent cell death in prostate cancer cells” (Oncotarget, 2018) can be followed below.

Read-outs that look alike come from different tables or passages of the source.

Common to all, as to experiment: biochemical
Common to all, as to design: KINOMEscan active site-directed competition binding assay (DiscoveRx), 456 kinases, per cent of control at 300 nM
What all share (settings): read-out: Percent of Control (%)

For one assay, the target named is MAP3K4 (Homo sapiens, UniProt Q9Y6R4). In a few lines:
(§1)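 Values reflect active-site competition binding from a screen of 456 kinases, with test compounds at a fixed 300 nmol/L.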

The target in another assay is SNRK (Homo sapiens, UniProt Q9NRH2). In a few lines:
as §1

The target of another assay is ACVRL1 (Homo sapiens, UniProt P37023). In a few lines: as §1
The target in assay [1] is T1, ABL1(H396P)-phosphorylated (Homo sapiens, UniProt P00519, H396P).
T1 construct: phosphorylated
The procedure, abridged: as §1

A further assay addresses T2, DRAK1 (Homo sapiens, UniProt Q9UEE5).
T2 construct: gene STK17A
In a few lines:
as §1

The next assay addresses NEK2 (Homo sapiens, UniProt P51955). The procedure, abridged: as §1
Another assay deals with TAOK2 (Homo sapiens, UniProt Q9UL54). The procedure, abridged: as §1
For a further assay, the target named is STK16 (Homo sapiens, UniProt O75716). In a few lines:
as §1

A further assay addresses CSNK1G1 (Homo sapiens, UniProt Q9HCP0). The procedure, abridged:
as §1

In another assay the target is MKNK1 (Homo sapiens, UniProt Q9BUB5). In a few lines: as §1
Another assay deals with PIM3 (Homo sapiens, UniProt Q86V86). The procedure, abridged:
as §1

For another assay, the target named is FLT4 (Homo sapiens, UniProt P35916). The procedure, abridged: as §1
A further assay concerns the target PRKD1 (Homo sapiens, UniProt Q15139). The procedure, abridged: as §1
For the next assay, the target named is PHKG1 (Homo sapiens, UniProt Q16816). In a few lines:
as §1

The next assay has as its target IRAK1 (Homo sapiens, UniProt P51617). In a few lines:
as §1

A further assay concerns the target T3, GCN2(Kin.Dom.2,S808G) (Homo sapiens, UniProt Q9P2K8, S808G).
T3 construct: gene EIF2AK4; Kin.Dom.2
The procedure, abridged:
as §1

Assay [2] concerns the target T4, TYK2(JH1domain-catalytic) (Homo sapiens, UniProt P29597).
T4 construct: JH1domain-catalytic
In a few lines: as §1

In the next assay the target is ALK(L1196M) (Homo sapiens, UniProt Q9UM73, L1196M). In a few lines: as §1
Another assay deals with DYRK1B (Homo sapiens, UniProt Q9Y463). The procedure, abridged: as §1
For another assay, the target named is TGFBR1 (Homo sapiens, UniProt P36897). The procedure, abridged: as §1
The next assay has as its target CASK (Homo sapiens, UniProt O14936). The procedure, abridged: as §1
For the next assay, the target named is MET (Homo sapiens, UniProt P08581). The procedure, abridged: as §1

T3 sequence (Q9P2K8 whole entry S808G): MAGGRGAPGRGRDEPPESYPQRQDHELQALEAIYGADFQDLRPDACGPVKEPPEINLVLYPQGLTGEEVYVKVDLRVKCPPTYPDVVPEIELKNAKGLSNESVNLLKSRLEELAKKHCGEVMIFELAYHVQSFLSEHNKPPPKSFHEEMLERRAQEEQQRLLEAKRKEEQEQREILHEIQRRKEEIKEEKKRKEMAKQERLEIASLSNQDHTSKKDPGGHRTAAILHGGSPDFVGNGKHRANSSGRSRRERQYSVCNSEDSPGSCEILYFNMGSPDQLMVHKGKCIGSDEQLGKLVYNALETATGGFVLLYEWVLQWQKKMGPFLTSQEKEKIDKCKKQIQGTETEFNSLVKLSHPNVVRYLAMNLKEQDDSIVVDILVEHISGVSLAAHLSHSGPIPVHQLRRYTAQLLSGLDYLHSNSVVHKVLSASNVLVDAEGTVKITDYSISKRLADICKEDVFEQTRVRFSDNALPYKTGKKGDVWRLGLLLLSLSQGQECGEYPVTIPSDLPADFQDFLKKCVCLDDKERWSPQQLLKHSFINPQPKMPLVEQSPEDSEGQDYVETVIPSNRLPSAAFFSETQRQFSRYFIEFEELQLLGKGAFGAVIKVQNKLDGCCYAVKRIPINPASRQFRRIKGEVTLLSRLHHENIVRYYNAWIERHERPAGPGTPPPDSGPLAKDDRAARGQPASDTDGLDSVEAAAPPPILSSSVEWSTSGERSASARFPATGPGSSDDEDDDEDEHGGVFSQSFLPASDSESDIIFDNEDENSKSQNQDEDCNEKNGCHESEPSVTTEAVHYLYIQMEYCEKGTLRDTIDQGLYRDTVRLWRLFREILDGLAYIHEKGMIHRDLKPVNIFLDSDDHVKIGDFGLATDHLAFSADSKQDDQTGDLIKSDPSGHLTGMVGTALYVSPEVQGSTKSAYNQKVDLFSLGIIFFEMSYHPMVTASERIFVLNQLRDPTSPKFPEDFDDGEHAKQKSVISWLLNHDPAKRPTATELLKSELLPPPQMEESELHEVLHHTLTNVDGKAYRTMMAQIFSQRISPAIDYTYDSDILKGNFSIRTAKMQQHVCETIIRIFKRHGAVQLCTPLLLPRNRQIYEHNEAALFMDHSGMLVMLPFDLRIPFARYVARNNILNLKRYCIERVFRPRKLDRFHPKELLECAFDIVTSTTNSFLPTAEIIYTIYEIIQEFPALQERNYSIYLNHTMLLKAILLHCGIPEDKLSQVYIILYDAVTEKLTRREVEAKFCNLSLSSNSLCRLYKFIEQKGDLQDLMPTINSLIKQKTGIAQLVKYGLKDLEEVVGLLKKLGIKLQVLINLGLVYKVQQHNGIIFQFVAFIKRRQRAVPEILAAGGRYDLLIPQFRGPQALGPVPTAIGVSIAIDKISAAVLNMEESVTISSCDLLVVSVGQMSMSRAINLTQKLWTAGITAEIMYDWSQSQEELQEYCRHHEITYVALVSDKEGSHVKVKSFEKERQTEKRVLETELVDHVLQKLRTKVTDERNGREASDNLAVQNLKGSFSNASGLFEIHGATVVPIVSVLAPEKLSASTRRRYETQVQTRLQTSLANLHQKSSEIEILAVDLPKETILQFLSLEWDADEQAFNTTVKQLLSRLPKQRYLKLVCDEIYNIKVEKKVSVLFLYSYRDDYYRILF
T2 sequence (Q9UEE5 whole entry): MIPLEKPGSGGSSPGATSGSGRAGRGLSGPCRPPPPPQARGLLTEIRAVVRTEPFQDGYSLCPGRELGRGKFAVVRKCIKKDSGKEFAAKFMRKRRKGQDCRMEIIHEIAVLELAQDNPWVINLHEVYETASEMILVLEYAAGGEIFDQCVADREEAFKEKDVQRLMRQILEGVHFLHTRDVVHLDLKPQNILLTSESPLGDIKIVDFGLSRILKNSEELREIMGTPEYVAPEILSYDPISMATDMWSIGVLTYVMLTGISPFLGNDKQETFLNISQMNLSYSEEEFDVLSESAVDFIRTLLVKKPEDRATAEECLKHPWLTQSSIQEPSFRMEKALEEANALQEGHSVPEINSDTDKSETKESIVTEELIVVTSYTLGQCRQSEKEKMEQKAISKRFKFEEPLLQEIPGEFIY
ALK(L1196M), sequence (Q9UM73 whole entry L1196M): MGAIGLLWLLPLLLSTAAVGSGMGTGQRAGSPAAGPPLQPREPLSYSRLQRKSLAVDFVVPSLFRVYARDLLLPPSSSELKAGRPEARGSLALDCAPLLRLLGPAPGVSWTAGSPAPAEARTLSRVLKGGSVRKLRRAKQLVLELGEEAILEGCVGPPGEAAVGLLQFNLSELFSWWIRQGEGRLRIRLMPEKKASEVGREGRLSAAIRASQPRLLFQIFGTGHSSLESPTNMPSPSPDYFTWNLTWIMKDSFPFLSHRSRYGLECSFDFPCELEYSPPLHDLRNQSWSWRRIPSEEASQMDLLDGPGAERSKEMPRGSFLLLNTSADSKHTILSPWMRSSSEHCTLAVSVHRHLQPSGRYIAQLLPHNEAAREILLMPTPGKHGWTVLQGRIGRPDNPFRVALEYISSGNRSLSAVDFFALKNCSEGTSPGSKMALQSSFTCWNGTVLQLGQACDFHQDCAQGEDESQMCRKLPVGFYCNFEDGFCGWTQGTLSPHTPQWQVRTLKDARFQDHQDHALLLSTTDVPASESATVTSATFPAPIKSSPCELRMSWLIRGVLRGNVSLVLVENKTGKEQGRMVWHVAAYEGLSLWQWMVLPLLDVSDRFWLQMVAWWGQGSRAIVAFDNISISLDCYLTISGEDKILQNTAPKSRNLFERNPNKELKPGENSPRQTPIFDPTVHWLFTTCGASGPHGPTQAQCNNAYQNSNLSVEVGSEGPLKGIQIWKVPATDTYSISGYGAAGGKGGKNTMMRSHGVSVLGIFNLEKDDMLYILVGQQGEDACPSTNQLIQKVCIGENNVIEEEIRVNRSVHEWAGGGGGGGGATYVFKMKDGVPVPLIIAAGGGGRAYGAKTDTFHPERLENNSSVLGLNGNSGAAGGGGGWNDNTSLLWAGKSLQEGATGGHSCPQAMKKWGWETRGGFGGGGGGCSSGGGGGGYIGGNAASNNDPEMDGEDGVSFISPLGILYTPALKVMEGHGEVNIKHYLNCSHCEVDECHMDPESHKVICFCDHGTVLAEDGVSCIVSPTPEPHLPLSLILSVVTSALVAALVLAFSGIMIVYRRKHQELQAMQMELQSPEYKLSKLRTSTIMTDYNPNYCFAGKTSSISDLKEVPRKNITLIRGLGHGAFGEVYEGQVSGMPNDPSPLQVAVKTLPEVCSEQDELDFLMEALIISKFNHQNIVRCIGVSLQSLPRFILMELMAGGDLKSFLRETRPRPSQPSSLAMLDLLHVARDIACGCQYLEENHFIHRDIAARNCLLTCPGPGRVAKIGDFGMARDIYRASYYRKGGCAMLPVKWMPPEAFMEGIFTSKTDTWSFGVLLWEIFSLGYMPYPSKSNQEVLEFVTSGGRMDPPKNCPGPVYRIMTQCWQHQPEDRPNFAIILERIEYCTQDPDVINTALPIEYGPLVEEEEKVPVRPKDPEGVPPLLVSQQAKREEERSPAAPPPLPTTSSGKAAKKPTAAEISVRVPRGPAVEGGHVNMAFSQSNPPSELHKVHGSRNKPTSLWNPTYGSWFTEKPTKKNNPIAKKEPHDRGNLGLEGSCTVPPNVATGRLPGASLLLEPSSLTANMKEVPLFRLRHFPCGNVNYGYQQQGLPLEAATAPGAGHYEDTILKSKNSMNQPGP
DYRK1B, sequence (Q9Y463 whole entry): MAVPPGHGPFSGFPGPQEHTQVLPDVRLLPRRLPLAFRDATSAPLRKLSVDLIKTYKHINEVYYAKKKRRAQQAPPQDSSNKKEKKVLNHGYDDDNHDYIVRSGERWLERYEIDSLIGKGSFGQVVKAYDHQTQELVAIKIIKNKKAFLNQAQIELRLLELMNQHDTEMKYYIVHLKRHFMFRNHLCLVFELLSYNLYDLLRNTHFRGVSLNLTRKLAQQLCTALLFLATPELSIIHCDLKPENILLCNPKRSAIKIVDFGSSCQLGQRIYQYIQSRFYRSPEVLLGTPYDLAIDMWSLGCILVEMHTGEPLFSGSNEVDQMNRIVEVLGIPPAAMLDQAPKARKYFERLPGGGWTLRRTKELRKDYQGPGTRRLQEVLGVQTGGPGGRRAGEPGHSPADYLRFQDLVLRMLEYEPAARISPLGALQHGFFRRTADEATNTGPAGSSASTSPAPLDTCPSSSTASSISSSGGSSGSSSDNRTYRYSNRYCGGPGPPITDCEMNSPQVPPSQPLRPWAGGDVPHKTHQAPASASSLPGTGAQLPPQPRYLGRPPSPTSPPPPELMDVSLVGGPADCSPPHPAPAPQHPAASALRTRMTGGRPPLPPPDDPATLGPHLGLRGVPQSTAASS
SNRK, sequence (Q9NRH2 whole entry): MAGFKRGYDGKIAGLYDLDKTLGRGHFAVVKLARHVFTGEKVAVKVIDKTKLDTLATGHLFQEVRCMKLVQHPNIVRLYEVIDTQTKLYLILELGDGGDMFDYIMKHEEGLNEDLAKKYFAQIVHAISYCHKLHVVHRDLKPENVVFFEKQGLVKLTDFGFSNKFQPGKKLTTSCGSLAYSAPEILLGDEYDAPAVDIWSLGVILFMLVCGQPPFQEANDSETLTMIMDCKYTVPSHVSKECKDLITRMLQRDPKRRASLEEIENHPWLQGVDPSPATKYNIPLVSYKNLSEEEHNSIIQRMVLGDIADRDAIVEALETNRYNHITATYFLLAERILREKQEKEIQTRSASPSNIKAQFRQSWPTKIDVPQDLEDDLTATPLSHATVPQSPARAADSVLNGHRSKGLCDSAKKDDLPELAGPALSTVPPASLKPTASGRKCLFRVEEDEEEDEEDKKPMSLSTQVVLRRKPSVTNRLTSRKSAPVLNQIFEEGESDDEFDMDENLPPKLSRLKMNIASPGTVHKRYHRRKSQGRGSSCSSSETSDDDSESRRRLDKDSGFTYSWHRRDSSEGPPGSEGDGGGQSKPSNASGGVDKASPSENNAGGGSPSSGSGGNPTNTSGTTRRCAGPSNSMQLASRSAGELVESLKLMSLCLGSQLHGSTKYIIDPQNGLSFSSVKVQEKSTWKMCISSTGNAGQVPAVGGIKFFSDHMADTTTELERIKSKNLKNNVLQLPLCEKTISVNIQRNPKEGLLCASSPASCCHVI

Take `Cc1ncccc1Oc1sc(C(N)=O)c2c1-c1c(cnn1C)CC2` [T-474, 1-methyl-8-((2-methylpyridin-3-yl)oxy)-4,5-dihydro-1H-thieno[3,4-g]indazole-6-carboxamide]: the remaining binding at 0.3 µM is 72% on MAP3K4; 71% on SNRK; 87% at ACVRL1; 100% in assay [1]; 100% at DRAK1; 100% on NEK2. Moreover, the remaining binding at 0.3 µM was determined as 100% on TAOK2; 88% on STK16; 79% on CSNK1G1; 50% on MKNK1; 82% on PIM3; 83% at FLT4. The remaining binding at 0.3 µM came out at 96% on PRKD1; 100% on PHKG1; 100% on IRAK1; 100% at GCN2(Kin.Dom.2,S808G); 40% in assay [2]; 100% at ALK(L1196M). Moreover, the remaining binding at 0.3 µM was 24% on DYRK1B, 81% on TGFBR1, 85% at CASK and 100% at MET.
In the case of `O=C(/C=C/c1cnccc1-c1ccc(F)cc1)Nc1ccc(CCc2nnco2)cc1` [T-418, (2E)-3-(4-(4-fluorophenyl)pyridin-3-yl)-N-(4-(2-(1,3,4-oxadiazol-2-yl)ethyl)phenyl)acrylamide], the remaining binding at 0.3 µM on MAP3K4 (sheet T-418) came out at 68%; at SNRK (sheet T-418) it was 73%; on ACVRL1 (sheet T-418) it was 77%; in assay [1] (sheet T-418), 96%; at DRAK1 (sheet T-418), 100%; on NEK2 (sheet T-418), 100%. Also, the remaining binding at 0.3 µM at TAOK2 (sheet T-418) is 100%; at STK16 (sheet T-418), 86%; on CSNK1G1 (sheet T-418) it was 97%; on MKNK1 (sheet T-418), 44%; on PIM3 (sheet T-418), 76%; on FLT4 (sheet T-418), 84%. Further, the remaining binding at 0.3 µM on PRKD1 (sheet T-418) turned out to be 96%; on PHKG1 (sheet T-418), 90%; at IRAK1 (sheet T-418) it was 100%; on GCN2(Kin.Dom.2,S808G) (sheet T-418) it was 100%; in assay [2] (sheet T-418) it was 40%; at ALK(L1196M) (sheet T-418) it was 100%. The remaining binding at 0.3 µM on DYRK1B (sheet T-418) is 67%; at TGFBR1 (sheet T-418), 94%; on CASK (sheet T-418), 89%; on MET (sheet T-418), 92%.
